Assay results from ChEMBL document CHEMBL5465560, “Selectivity Literature for EUbOPEN Chemogenomic Library” (2024).

Tests used:
[1] = biological target: AP2-associated protein kinase 1 (Homo sapiens, UniProt Q2M2I8); test: Selectivity interaction (KinomeScan (DiscoverX)) EUB0000595a AAK1; conditions: at 10 µM
[2] = biological target: T1, SNF-related serine/threonine-protein kinase (Homo sapiens) (UniProt Q9NRH2); test: Selectivity interaction (KinomeScan (DiscoverX)) EUB0000092b SNRK; conditions: at 10 µM
T1 sequence (whole entry): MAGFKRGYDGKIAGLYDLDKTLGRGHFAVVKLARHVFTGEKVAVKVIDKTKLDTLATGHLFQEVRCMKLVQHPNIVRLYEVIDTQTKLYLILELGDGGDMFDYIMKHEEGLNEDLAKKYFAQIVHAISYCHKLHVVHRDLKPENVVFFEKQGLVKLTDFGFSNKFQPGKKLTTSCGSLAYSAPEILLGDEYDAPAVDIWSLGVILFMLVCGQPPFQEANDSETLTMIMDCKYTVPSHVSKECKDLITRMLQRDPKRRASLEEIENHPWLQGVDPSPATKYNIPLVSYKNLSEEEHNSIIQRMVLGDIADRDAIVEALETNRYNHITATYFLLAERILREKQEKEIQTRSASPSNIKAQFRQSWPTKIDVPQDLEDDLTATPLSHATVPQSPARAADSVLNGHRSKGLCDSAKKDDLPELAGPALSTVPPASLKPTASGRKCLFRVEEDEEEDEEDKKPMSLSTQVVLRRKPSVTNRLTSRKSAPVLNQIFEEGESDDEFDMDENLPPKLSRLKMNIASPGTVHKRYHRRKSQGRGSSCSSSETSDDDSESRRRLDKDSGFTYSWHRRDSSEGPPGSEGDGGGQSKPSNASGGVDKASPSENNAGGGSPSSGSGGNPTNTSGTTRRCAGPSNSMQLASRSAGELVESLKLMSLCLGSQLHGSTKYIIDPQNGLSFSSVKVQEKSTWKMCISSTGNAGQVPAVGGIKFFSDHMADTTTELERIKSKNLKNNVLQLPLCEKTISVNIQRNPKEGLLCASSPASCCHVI

[3] = biological target: Serine/threonine-protein kinase MARK1 (Homo sapiens) (UniProt Q9P0L2); test: Selectivity interaction (Kinase screening (Nanosyn)) EUB0000604a MARK1
Sequence of Serine/threonine-protein kinase MARK1 (Homo sapiens) (Q9P0L2 whole entry, looked up): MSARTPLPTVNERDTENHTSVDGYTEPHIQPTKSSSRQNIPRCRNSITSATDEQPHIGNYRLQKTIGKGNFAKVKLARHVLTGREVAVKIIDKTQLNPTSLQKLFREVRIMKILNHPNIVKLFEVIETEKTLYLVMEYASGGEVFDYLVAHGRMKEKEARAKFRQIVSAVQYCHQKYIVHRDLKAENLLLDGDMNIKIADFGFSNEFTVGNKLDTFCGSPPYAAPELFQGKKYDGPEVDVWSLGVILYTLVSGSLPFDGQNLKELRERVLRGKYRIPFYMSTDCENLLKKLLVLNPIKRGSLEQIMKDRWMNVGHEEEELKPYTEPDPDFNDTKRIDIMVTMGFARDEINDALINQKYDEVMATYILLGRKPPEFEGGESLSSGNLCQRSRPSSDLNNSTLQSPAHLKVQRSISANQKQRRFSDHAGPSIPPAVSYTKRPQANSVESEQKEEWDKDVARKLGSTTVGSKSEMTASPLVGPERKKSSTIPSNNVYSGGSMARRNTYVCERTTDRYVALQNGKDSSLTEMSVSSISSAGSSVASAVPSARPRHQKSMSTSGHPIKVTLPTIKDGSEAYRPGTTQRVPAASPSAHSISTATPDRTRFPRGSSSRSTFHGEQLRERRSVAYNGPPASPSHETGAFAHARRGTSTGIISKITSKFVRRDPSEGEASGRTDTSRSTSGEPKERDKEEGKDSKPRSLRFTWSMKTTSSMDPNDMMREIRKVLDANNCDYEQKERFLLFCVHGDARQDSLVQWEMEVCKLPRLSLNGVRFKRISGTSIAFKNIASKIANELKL

[4] = biological target: T2, Serine/threonine-protein kinase LATS1 (Homo sapiens) (UniProt O95835); test: Selectivity interaction (Ambit KINOMEscan and KiNATiv profiling in Jurkat cells) EUB0000090b LATS1; type: cell-based; conditions: at 1 µM
T2 sequence (whole entry): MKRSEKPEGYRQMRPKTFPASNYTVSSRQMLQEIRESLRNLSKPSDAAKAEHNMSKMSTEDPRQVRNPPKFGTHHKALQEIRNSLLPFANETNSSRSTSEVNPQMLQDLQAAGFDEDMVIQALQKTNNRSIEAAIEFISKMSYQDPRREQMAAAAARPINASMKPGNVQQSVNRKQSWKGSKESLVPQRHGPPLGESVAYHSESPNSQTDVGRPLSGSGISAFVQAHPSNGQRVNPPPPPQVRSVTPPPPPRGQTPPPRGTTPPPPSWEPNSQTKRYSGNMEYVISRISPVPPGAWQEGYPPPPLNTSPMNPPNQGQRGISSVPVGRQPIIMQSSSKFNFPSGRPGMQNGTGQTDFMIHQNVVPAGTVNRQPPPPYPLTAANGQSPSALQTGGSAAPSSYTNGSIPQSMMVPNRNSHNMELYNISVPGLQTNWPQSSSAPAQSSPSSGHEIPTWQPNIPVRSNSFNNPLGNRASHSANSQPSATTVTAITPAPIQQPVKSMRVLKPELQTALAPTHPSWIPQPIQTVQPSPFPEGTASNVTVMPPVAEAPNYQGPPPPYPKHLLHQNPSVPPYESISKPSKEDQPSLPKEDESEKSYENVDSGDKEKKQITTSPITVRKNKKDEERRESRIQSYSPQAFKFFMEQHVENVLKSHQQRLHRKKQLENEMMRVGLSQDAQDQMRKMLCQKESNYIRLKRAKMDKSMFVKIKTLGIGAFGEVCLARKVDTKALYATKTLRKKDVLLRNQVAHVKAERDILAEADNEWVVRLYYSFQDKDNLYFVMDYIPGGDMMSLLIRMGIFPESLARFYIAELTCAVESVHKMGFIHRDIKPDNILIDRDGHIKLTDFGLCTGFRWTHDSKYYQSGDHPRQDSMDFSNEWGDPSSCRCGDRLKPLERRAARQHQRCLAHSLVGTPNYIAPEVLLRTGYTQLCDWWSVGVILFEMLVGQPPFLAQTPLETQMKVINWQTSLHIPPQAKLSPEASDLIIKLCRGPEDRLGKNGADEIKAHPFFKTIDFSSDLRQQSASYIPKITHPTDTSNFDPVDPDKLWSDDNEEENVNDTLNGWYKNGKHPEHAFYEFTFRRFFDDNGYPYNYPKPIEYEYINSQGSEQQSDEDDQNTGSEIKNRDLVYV

[5] = biological target: Insulin receptor-related protein (Homo sapiens) (UniProt P14616); test: Selectivity interaction (KinomeScan (DiscoverX)) EUB0001619a INSRR; conditions: at 1 µM
[6] = biological target: Ribosomal protein S6 kinase alpha-6 (Homo sapiens, UniProt Q9UK32); test: Selectivity interaction (KinomeScan (DiscoverX)) EUB0001619a RPS6KA6; conditions: at 1 µM
Sequence of Ribosomal protein S6 kinase alpha-6 (Q9UK32 whole entry): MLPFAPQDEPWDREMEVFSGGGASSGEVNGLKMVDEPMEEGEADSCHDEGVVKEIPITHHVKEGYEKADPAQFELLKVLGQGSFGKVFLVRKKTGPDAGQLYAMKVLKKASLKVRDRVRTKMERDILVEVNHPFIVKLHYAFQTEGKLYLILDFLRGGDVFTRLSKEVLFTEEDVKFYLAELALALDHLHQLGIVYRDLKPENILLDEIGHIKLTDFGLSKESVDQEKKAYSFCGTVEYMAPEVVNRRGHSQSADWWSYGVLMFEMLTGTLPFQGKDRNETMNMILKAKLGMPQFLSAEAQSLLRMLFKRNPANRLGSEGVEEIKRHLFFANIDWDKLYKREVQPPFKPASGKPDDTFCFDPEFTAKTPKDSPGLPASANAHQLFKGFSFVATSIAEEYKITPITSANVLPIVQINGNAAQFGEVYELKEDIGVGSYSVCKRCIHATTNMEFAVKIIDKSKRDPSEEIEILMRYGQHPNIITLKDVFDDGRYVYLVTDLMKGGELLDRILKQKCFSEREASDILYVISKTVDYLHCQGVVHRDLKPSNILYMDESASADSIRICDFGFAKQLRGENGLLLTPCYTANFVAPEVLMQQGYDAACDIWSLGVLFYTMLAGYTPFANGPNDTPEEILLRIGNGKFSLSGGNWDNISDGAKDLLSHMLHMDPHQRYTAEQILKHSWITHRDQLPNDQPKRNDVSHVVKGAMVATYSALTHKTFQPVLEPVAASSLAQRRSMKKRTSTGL

[7] = biological target: Tyrosine-protein kinase ABL2 (Homo sapiens, UniProt P42684); test: Selectivity interaction (Upstate Kinase Profiler service (Millipore)) EUB0000056c ABL2; conditions: at 1 µM
Sequence of Tyrosine-protein kinase ABL2 (P42684 whole entry): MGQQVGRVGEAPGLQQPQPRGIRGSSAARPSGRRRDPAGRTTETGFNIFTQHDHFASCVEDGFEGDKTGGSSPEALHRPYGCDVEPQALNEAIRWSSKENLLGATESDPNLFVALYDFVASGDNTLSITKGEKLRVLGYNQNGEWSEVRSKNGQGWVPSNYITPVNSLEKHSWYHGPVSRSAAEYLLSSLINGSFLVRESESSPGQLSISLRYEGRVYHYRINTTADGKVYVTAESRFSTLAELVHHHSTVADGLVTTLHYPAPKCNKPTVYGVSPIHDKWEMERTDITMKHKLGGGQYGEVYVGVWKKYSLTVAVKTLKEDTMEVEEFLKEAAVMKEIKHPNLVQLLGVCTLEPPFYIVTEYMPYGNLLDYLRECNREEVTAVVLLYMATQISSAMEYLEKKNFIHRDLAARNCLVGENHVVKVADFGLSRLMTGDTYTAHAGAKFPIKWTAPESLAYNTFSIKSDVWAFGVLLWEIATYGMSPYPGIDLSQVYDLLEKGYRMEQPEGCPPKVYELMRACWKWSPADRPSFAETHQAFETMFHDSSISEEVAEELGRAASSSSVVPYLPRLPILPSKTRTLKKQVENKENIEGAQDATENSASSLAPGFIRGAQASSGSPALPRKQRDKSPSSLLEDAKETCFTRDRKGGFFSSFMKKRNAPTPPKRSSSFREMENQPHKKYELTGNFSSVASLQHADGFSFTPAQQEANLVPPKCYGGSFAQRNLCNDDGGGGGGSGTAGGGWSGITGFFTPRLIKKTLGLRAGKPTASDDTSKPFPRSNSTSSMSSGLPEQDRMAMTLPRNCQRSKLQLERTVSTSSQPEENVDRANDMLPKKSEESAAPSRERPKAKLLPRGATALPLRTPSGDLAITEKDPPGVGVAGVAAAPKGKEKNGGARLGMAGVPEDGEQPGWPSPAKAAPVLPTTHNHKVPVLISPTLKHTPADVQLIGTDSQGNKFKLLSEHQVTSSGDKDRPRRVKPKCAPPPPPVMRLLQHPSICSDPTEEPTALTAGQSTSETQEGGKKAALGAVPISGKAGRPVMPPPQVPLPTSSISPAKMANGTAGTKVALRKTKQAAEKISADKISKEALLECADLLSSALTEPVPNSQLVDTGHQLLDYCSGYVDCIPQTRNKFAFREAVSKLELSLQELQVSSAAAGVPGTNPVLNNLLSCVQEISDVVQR

[8] = biological target: Phosphatidylinositol 3-kinase catalytic subunit type 3 (Homo sapiens, UniProt Q8NEB9); test: Selectivity interaction (KinomeScan (DiscoverX)) EUB0000695a PIK3C3; conditions: at 100 nM
Sequence of Phosphatidylinositol 3-kinase catalytic subunit type 3 (Q8NEB9 whole entry): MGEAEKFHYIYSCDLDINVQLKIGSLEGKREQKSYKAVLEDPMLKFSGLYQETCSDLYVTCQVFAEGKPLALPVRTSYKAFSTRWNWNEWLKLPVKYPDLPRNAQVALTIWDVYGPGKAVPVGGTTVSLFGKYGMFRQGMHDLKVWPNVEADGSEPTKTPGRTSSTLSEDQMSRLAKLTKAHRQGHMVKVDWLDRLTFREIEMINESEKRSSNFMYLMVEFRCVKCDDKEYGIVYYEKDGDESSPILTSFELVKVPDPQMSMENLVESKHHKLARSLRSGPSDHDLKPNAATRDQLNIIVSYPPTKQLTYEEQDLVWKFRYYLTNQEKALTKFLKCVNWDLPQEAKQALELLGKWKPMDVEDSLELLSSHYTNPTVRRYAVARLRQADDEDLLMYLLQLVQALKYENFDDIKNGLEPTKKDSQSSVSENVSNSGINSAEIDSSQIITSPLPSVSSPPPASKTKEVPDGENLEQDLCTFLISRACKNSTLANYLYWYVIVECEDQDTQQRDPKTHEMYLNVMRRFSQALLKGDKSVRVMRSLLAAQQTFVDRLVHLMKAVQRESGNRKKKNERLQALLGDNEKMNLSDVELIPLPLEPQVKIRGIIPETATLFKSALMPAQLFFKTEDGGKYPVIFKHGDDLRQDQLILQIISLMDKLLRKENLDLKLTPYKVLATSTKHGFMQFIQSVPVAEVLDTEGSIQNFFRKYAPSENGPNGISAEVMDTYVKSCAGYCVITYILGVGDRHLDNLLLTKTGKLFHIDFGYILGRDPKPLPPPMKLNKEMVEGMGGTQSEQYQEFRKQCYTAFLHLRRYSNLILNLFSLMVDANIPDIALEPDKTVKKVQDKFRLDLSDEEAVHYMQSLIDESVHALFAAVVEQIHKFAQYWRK

Sequence of AP2-associated protein kinase 1 (Q2M2I8 whole entry, looked up): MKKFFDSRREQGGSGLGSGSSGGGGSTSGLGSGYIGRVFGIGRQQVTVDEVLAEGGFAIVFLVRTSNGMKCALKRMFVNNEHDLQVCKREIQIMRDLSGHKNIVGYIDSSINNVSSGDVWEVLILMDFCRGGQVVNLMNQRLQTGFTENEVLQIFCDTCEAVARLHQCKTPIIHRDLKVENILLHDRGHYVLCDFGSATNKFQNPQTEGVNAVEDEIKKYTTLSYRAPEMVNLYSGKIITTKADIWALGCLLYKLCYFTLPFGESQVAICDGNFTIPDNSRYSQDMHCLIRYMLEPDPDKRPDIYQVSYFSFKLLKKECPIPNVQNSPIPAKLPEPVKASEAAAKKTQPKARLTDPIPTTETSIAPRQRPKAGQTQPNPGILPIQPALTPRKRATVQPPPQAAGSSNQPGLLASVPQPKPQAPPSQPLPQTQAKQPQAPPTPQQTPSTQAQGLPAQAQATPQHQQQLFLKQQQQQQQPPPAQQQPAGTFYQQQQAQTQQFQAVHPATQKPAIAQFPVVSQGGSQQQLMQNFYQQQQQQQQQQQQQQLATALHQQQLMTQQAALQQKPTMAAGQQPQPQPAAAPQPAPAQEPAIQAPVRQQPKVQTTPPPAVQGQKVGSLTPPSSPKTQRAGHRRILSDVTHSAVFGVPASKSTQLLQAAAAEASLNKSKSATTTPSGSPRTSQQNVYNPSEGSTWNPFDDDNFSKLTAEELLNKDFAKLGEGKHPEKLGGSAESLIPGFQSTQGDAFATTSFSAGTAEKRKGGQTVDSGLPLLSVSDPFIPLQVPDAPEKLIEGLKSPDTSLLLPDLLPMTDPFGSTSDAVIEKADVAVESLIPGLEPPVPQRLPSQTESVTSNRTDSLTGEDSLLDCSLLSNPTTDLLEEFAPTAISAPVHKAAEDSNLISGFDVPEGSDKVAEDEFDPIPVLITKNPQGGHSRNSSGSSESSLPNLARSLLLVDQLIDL

COCC(=O)NC/C=C/c1ccc2ncnc(Nc3ccc(Oc4ccc(C)nc4)c(C)c3)c2c1 [CP-724714]
% of control [1]: 100%

CCC(=O)N1CCN(c2ccc(-n3c(=O)ccc4cnc5ccc(-c6cnc7ccccc7c6)cc5c43)cc2C(F)(F)F)CC1
% of control [2]: 60%

Cc1cnc(Nc2ccc(F)cc2Cl)nc1-c1c[nH]c(C(=O)N[C@H](CO)c2cccc(Cl)c2)c1
% of inhibition [3]: 12%

CN(C)C/C=C/C(=O)Nc1ccc(C(=O)N2CCCC(Nc3ncc(Cl)c(-c4c[nH]c5ccccc45)n3)C2)cc1 (stereo not drawn)
% of control [4]: 84%

N#Cc1cccc(-c2c[nH]c3ncnc(N4CCOCC4)c23)c1
% of control [5]: 100%
% of control [6]: 9.8%

Cc1ccc(-c2ccc3c(ccc4sc5c(c43)NC[C@@H](C)NC5=O)n2)cn1
% of inhibition [7]: 13%

Cc1cc(F)c(C(=O)Nc2cccc(-c3nncn3C(C)C)n2)cc1-n1cnc(C2CC2)c1
% of control [8]: 88%
